# According to US20070003585A1, “Topical skin treating compositions” (STIEFEL LABORATORIES, INC., priority 2005, published 2007):
# Like-named read-outs stand apart in the source and are kept apart here.
# Legend:
# [1] = Storage stability of composition containing 2.15% of benzoyl peroxide, […] of tazarotene, and […] of clindamycin (Example 8); type: physicochemical; details: Example 8 composition, initial 2.15%, 6 months
# [2] = Storage stability of composition containing 2.02% of benzoyl peroxide, […] of tazarotene, and […] of clindamycin (Example 9); type: physicochemical; details: Example 9 composition, initial 2.02%
# [3] = Storage stability of composition containing 2.02% of benzoyl peroxide and 0.099% of tazarotene (Example 17); type: physicochemical; details: Example 17 composition, initial 2.02%
# From the text: (§1) The results are as follows:
# [4] = Storage stability of composition containing 5.18% of benzoyl peroxide and 0.099% of tazarotene (Example 18); type: physicochemical; details: Example 18 composition, initial 5.18%
# From the text: as §1
# [5] = Example 6 composition, initial 5.54%
# [6] = Example 7 composition, initial 5.22%
# [7] = Example 10 composition, initial 1.54%
# [8] = Example 11 composition, initial […]
# [9] = Example 12 composition, initial […]
# [10] = Example 13 composition, initial […]
smiles,measurement,setting,value
O=C(OOC(=O)c1ccccc1)c1ccccc1 [Benzoyl Peroxide],Benzoyl Peroxide (BPO) (as % w/w),[1]; 6° C.,2.13 % w/w
same,Benzoyl Peroxide (BPO) (as % w/w),[1]; 25° C.,2.00 % w/w
same,Benzoyl Peroxide (BPO) (as % w/w),[1]; 30° C.,2.05 % w/w
same,Benzoyl Peroxide (BPO) (as % w/w),[1]; 40° C.,1.69 % w/w
same,Benzoyl Peroxide (BPO) (as % w/w),"[2]; 6 months, 6° C.",2.10 % w/w
same,Benzoyl Peroxide (BPO) (as % w/w),"[2]; 6 months, 25° C.",2.00 % w/w
same,Benzoyl Peroxide (BPO) (as % w/w),"[2]; 6 months, 30° C.",1.94 % w/w
same,Benzoyl Peroxide (BPO) (as % w/w),"[2]; 6 months, 40° C.",1.45 % w/w
same,Benzoyl Peroxide (BPO) (as % w/w),"[2]; 90 days, 6° C.",2.02 % w/w
same,Benzoyl Peroxide (BPO) (as % w/w),"[2]; 90 days, 25° C.",1.97 % w/w
same,Benzoyl Peroxide (BPO) (as % w/w),"[2]; 90 days, 30° C.",1.97 % w/w
same,Benzoyl Peroxide (BPO) (as % w/w),"[2]; 90 days, 40° C.",1.73 % w/w
same,Benzoyl peroxide (as % w/w),"[3]; 6 months, 6° C.",2.07 % w/w
same,Benzoyl peroxide (as % w/w),"[3]; 6 months, 25° C.",2.03 % w/w
same,Benzoyl peroxide (as % w/w),"[3]; 6 months, 30° C.",2.05 % w/w
same,Benzoyl peroxide (as % w/w),"[3]; 6 months, 40° C.",1.94 % w/w
same,Benzoyl peroxide (as % w/w),"[3]; 90 days, 6° C.",2.09 % w/w
same,Benzoyl peroxide (as % w/w),"[3]; 90 days, 25° C.",2.06 % w/w
same,Benzoyl peroxide (as % w/w),"[3]; 90 days, 30° C.",2.07 % w/w
same,Benzoyl peroxide (as % w/w),"[3]; 90 days, 40° C.",2.01 % w/w
same,Benzoyl peroxide (as % w/w),"[4]; 6 months, 6° C.",5.2 % w/w
same,Benzoyl peroxide (as % w/w),"[4]; 6 months, 25° C.",5.14 % w/w
same,Benzoyl peroxide (as % w/w),"[4]; 6 months, 30° C.",5.02 % w/w
same,Benzoyl peroxide (as % w/w),"[4]; 6 months, 40° C.",4.81 % w/w
same,Benzoyl peroxide (as % w/w),"[4]; 90 days, 6° C.",5.25 % w/w
same,Benzoyl peroxide (as % w/w),"[4]; 90 days, 25° C.",5.23 % w/w
same,Benzoyl peroxide (as % w/w),"[4]; 90 days, 30° C.",5.30 % w/w
same,Benzoyl peroxide (as % w/w),"[4]; 90 days, 40° C.",5.16 % w/w
same,Benzoyl Peroxide (BPO) (as % w/w),"[5]; 2 weeks, 25° C.",5.43 % w/w
same,Benzoyl Peroxide (BPO) (as % w/w),"[5]; 2 weeks, 30° C.",5.35 % w/w
same,Benzoyl Peroxide (BPO) (as % w/w),"[5]; 2 weeks, 40° C.",5.34 % w/w
same,Benzoyl Peroxide (BPO) (as % w/w),"[5]; 90 days, 6° C.",5.48 % w/w
same,Benzoyl Peroxide (BPO) (as % w/w),"[5]; 90 days, 25° C.",5.34 % w/w
same,Benzoyl Peroxide (BPO) (as % w/w),"[5]; 90 days, 30° C.",5.33 % w/w
same,Benzoyl Peroxide (BPO) (as % w/w),"[5]; 90 days, 40° C.",5.19 % w/w
same,Benzoyl Peroxide (BPO) (as % w/w),"[6]; 2 weeks, 6° C.",5.22 % w/w
same,Benzoyl Peroxide (BPO) (as % w/w),"[6]; 2 weeks, 25° C.",5.24 % w/w
same,Benzoyl Peroxide (BPO) (as % w/w),"[6]; 2 weeks, 30° C.",5.23 % w/w
same,Benzoyl Peroxide (BPO) (as % w/w),"[6]; 2 weeks, 40° C.",5.12 % w/w
same,Benzoyl Peroxide (BPO) (as % w/w),"[6]; 6 months, 6° C.",5.16 % w/w
same,Benzoyl Peroxide (BPO) (as % w/w),"[6]; 6 months, 25° C.",4.80 % w/w
same,Benzoyl Peroxide (BPO) (as % w/w),"[6]; 6 months, 30° C.",4.91 % w/w
same,Benzoyl Peroxide (BPO) (as % w/w),"[6]; 6 months, 40° C.",4.59 % w/w
same,Benzoyl Peroxide (BPO) (as % w/w),"[7]; 6 months, 6° C.",1.50 % w/w
same,Benzoyl Peroxide (BPO) (as % w/w),"[7]; 6 months, 25° C.",1.40 % w/w
same,Benzoyl Peroxide (BPO) (as % w/w),"[7]; 6 months, 30° C.",1.40 % w/w
same,Benzoyl Peroxide (BPO) (as % w/w),"[7]; 6 months, 40° C.",1.03 % w/w
same,Benzoyl Peroxide (BPO) (as % w/w),"[7]; 90 days, 6° C.",1.50 % w/w
same,Benzoyl Peroxide (BPO) (as % w/w),"[7]; 90 days, 25° C.",1.44 % w/w
same,Benzoyl Peroxide (BPO) (as % w/w),"[7]; 90 days, 30° C.",1.42 % w/w
same,Benzoyl Peroxide (BPO) (as % w/w),"[7]; 90 days, 40° C.",1.28 % w/w
same,Benzoyl Peroxide (BPO) (as % w/w),"[8]; 2 weeks, 6° C.",0.99 % w/w
same,Benzoyl Peroxide (BPO) (as % w/w),"[8]; 2 weeks, 25° C.",0.95 % w/w
same,Benzoyl Peroxide (BPO) (as % w/w),"[8]; 2 weeks, 40° C.",0.94 % w/w
same,Benzoyl Peroxide (BPO) (as % w/w),"[8]; 6 months, 6° C.",0.99 % w/w
same,Benzoyl Peroxide (BPO) (as % w/w),"[8]; 6 months, 25° C.",0.91 % w/w
same,Benzoyl Peroxide (BPO) (as % w/w),"[8]; 6 months, 40° C.",0.35 % w/w
same,Benzoyl Peroxide (BPO) (as % w/w),"[8]; 30 days, 6° C.",0.98 % w/w
same,Benzoyl Peroxide (BPO) (as % w/w),"[8]; 30 days, 25° C.",0.95 % w/w
same,Benzoyl Peroxide (BPO) (as % w/w),"[8]; 30 days, 40° C.",0.90 % w/w
same,Benzoyl Peroxide (BPO) (as % w/w),"[8]; 90 days, 6° C.",0.99 % w/w
same,Benzoyl Peroxide (BPO) (as % w/w),"[8]; 90 days, 25° C.",0.93 % w/w
same,Benzoyl Peroxide (BPO) (as % w/w),"[8]; 90 days, 40° C.",0.69 % w/w
same,Benzoyl Peroxide (BPO) (as % w/w),"[9]; 2 weeks, 6° C.",0.99 % w/w
same,Benzoyl Peroxide (BPO) (as % w/w),"[9]; 2 weeks, 25° C.",0.97 % w/w
same,Benzoyl Peroxide (BPO) (as % w/w),"[9]; 2 weeks, 30° C.",0.97 % w/w
same,Benzoyl Peroxide (BPO) (as % w/w),"[9]; 2 weeks, 40° C.",0.94 % w/w
same,Benzoyl Peroxide (BPO) (as % w/w),"[9]; 6 months, 6° C.",1.01 % w/w
same,Benzoyl Peroxide (BPO) (as % w/w),"[9]; 6 months, 25° C.",0.95 % w/w
same,Benzoyl Peroxide (BPO) (as % w/w),"[9]; 6 months, 30° C.",0.92 % w/w
same,Benzoyl Peroxide (BPO) (as % w/w),"[9]; 6 months, 40° C.",0.40 % w/w
same,Benzoyl Peroxide (BPO) (as % w/w),"[9]; 90 days, 6° C.",1.00 % w/w
same,Benzoyl Peroxide (BPO) (as % w/w),"[9]; 90 days, 25° C.",0.94 % w/w
same,Benzoyl Peroxide (BPO) (as % w/w),"[9]; 90 days, 30° C.",0.93 % w/w
same,Benzoyl Peroxide (BPO) (as % w/w),"[9]; 90 days, 40° C.",0.73 % w/w
same,Benzoyl Peroxide (BPO) (as % w/w),"[10]; 2 weeks, 6° C.",0.99 % w/w
same,Benzoyl Peroxide (BPO) (as % w/w),"[10]; 2 weeks, 25° C.",0.98 % w/w
same,Benzoyl Peroxide (BPO) (as % w/w),"[10]; 2 weeks, 30° C.",0.98 % w/w
same,Benzoyl Peroxide (BPO) (as % w/w),"[10]; 2 weeks, 40° C.",0.96 % w/w
same,Benzoyl Peroxide (BPO) (as % w/w),"[10]; 6 months, 6° C.",1.02 % w/w
same,Benzoyl Peroxide (BPO) (as % w/w),"[10]; 6 months, 25° C.",0.96 % w/w
same,Benzoyl Peroxide (BPO) (as % w/w),"[10]; 6 months, 30° C.",0.91 % w/w
same,Benzoyl Peroxide (BPO) (as % w/w),"[10]; 6 months, 40° C.",0.40 % w/w
same,Benzoyl Peroxide (BPO) (as % w/w),"[10]; 90 days, 6° C.",1.02 % w/w
same,Benzoyl Peroxide (BPO) (as % w/w),"[10]; 90 days, 25° C.",0.99 % w/w
same,Benzoyl Peroxide (BPO) (as % w/w),"[10]; 90 days, 30° C.",0.95 % w/w
same,Benzoyl Peroxide (BPO) (as % w/w),"[10]; 90 days, 40° C.",0.73 % w/w
